Assay results from patent US11147272B2, “Pyridone compounds and agricultural and horticultural fungicides comprising the same as active ingredients” (MITSUI CHEMICALS AGRO, INC., priority 2017, dated 2021).

Assays:
Botrytis cinerea = test: Test Example B: Gray mold on tomato; details: 250 ppm drug solution sprayed on test plant
Plasmopara viticola = test: Test Example G: Downy mildew on vine; details: 250 ppm drug solution sprayed (2.5 ml/pot), grape Neomuscat, 7 to 10 days after inoculation
[1] = system: Blumeria graminis f. sp. hordei; test: Test Example D: Powdery mildew on barley; details: 250 ppm drug solution sprayed on test plant
Puccinia recondita = test: Test Example E: Brown rust on wheat; type: in vivo; details: 250 ppm drug solution sprayed on test plant
Phytophthora infestans = test: whole plant or invertebrate; type: in vivo; details: 250 ppm drug solution sprayed on test plant
Alternaia brassicicola = test: Test Example C: Alternaria sooty spot on cabbage; type: in vivo; details: 250 ppm drug solution sprayed on test plant
Source text: Seeds of a test plant (cabbage variety: Shikidori) were planted and cultivated until the cotyledons extended.
<Control Value> Control value=100{1−(n/3)}

Magnaporthe grisea = test: whole plant or invertebrate; type: in vivo; details: 250 ppm drug solution sprayed on test plant
[2] = system: Colletotrichum orbiculare; test: Test Example H: Anthracnose on cucumber; details: 250 ppm drug solution sprayed (2.5 ml/pot), cucumber Sagami Hanjiro, 6 to 10 days after inoculation

SMILES | Test B control value (Botrytis cinerea) | Test G control value (Plasmopara viticola) | Test D control value [1] | Test E control value (Puccinia recondita) | Test F control value (Phytophthora infestans) | Test C control value (Alternaia brassicicola) | Test A control value (Magnaporthe grisea) | Test H control value [2]
CCCc1cc(I)c(=O)n(CCC)c1-c1c(F)cc(F)cc1F [compound 441] | L (50% or less control value) | L (50% or less control value) | L (50% or less control value) | L (50% or less control value) | L (50% or less control value) | L (50% or less control value) | L (50% or less control value) | H (more than 50% control value)
CCCc1ccc(=O)n(CCC)c1-c1c(F)cc(OC)cc1F [compound 442] | L (50% or less control value) | H (more than 50% control value) | H (more than 50% control value) | H (more than 50% control value) | L (50% or less control value) | L (50% or less control value) | H (more than 50% control value) | H (more than 50% control value)
CCCc1cc(Cl)c(=O)n(CCC)c1-c1c(F)cc(OC)cc1F [compound 443] | H (more than 50% control value) | H (more than 50% control value) | L (50% or less control value) | H (more than 50% control value) | H (more than 50% control value) | H (more than 50% control value) | L (50% or less control value) | H (more than 50% control value)
CCCc1cc(Br)c(=O)n(CCC)c1-c1c(F)cc(OC)cc1F [compound 444] | H (more than 50% control value) | H (more than 50% control value) | L (50% or less control value) | H (more than 50% control value) | L (50% or less control value) | H (more than 50% control value) | L (50% or less control value) | H (more than 50% control value)
CCCc1cc(I)c(=O)n(CCC)c1-c1c(F)cc(OC)cc1F [compound 445] | H (more than 50% control value) | L (50% or less control value) | L (50% or less control value) | H (more than 50% control value) | L (50% or less control value) | H (more than 50% control value) | L (50% or less control value) | H (more than 50% control value)
CC(C)C(O)c1cc(Cl)c(=O)n(C)c1-c1c(F)cc(F)cc1F (stereo not shown) [compound 447] | H (more than 50% control value) | H (more than 50% control value) | H (more than 50% control value) | H (more than 50% control value) | L (50% or less control value) | H (more than 50% control value) | H (more than 50% control value) | H (more than 50% control value)
CC(C)C(=O)c1cc(Cl)c(=O)n(C)c1-c1c(F)cc(F)cc1F [compound 448] | H (more than 50% control value) | L (50% or less control value) | L (50% or less control value) | L (50% or less control value) | L (50% or less control value) | L (50% or less control value) | L (50% or less control value) | L (50% or less control value)
CCn1c(-c2c(F)cc(F)cc2F)c(C=O)ccc1=O [compound 449] | H (more than 50% control value) | L (50% or less control value) | L (50% or less control value) | L (50% or less control value) | L (50% or less control value) | L (50% or less control value) | L (50% or less control value) | L (50% or less control value)
CC(C)C(C)(O)c1cc(Cl)c(=O)n(C)c1-c1c(F)cc(F)cc1F (stereo not shown) [compound 450] | H (more than 50% control value) | H (more than 50% control value) | H (more than 50% control value) | H (more than 50% control value) | H (more than 50% control value) | H (more than 50% control value) | H (more than 50% control value) | H (more than 50% control value)
CCOC(C)(c1cc(Cl)c(=O)n(C)c1-c1c(F)cc(F)cc1F)C(C)C (stereo not shown) [compound 451] | L (50% or less control value) | L (50% or less control value) | H (more than 50% control value) | L (50% or less control value) | L (50% or less control value) | L (50% or less control value) | H (more than 50% control value) | L (50% or less control value)
COC(C)(c1cc(Cl)c(=O)n(C)c1-c1c(F)cc(F)cc1F)C(C)C (stereo not shown) [compound 452] | H (more than 50% control value) | H (more than 50% control value) | H (more than 50% control value) | H (more than 50% control value) | L (50% or less control value) | H (more than 50% control value) | H (more than 50% control value) | H (more than 50% control value)
CCn1c(-c2c(F)cc(F)cc2F)c(C(O)C(C)C)ccc1=O (stereo not shown) [compound 453] | H (more than 50% control value) | H (more than 50% control value) | H (more than 50% control value) | H (more than 50% control value) | L (50% or less control value) | H (more than 50% control value) | L (50% or less control value) | H (more than 50% control value)
CCn1c(-c2c(F)cc(F)cc2F)c(C(=O)C(C)C)ccc1=O [compound 454] | H (more than 50% control value) | L (50% or less control value) | H (more than 50% control value) | H (more than 50% control value) | L (50% or less control value) | H (more than 50% control value) | L (50% or less control value) | H (more than 50% control value)
CCn1c(-c2c(F)cc(F)cc2F)c(C(C)(O)C(C)C)ccc1=O (stereo not shown) [compound 455] | H (more than 50% control value) | H (more than 50% control value) | H (more than 50% control value) | H (more than 50% control value) | L (50% or less control value) | H (more than 50% control value) | L (50% or less control value) | H (more than 50% control value)
CCCc1ccc(=O)n(CC)c1-c1c(F)cc(OCC)cc1F [compound 456] | H (more than 50% control value) | H (more than 50% control value) | H (more than 50% control value) | H (more than 50% control value) | L (50% or less control value) | H (more than 50% control value) | H (more than 50% control value) | H (more than 50% control value)
CCCc1cc(Cl)c(=O)n(CC)c1-c1c(F)cc(OCC)cc1F [compound 457] | H (more than 50% control value) | L (50% or less control value) | H (more than 50% control value) | H (more than 50% control value) | L (50% or less control value) | H (more than 50% control value) | H (more than 50% control value) | H (more than 50% control value)
CCCc1cc(Br)c(=O)n(CC)c1-c1c(F)cc(OCC)cc1F [compound 458] | H (more than 50% control value) | H (more than 50% control value) | H (more than 50% control value) | H (more than 50% control value) | L (50% or less control value) | H (more than 50% control value) | H (more than 50% control value) | H (more than 50% control value)
